Numbers after ± are expanded uncertainties.
Assay: xn = mol fraction of the nth substance listed
Conditions: 101 kPa, Liquid, Vibrating tube method

CC(C)(C)O [2-methylpropan-2-ol] + O
Conditions | mass density [kg/m3]
274.15 K, x1 = 0.00089 | 999.21 ± 0.11
274.15 K, x1 = 0.00146 | 998.81 ± 0.11
274.15 K, x1 = 0.00269 | 997.91 ± 0.11
274.15 K, x1 = 0.00403 | 997.02 ± 0.11
274.15 K, x1 = 0.00513 | 996.3 ± 0.11
274.15 K, x1 = 0.00761 | 994.82 ± 0.11
274.15 K, x1 = 0.01051 | 993.19 ± 0.11
274.15 K, x1 = 0.01405 | 991.42 ± 0.11
274.15 K, x1 = 0.01793 | 989.78 ± 0.11
274.15 K, x1 = 0.02241 | 988.11 ± 0.11
274.15 K, x1 = 0.03005 | 985.71 ± 0.11
274.15 K, x1 = 0.04242 | 982.79 ± 0.11
274.15 K, x1 = 0.08929 | 966.2 ± 0.12
275.15 K, x1 = 0.00089 | 999.25 ± 0.11
275.15 K, x1 = 0.00146 | 998.85 ± 0.11
275.15 K, x1 = 0.00269 | 997.96 ± 0.11
275.15 K, x1 = 0.00403 | 997.06 ± 0.11
275.15 K, x1 = 0.00513 | 996.34 ± 0.11
275.15 K, x1 = 0.00761 | 994.84 ± 0.11
275.15 K, x1 = 0.01051 | 993.21 ± 0.11
275.15 K, x1 = 0.01405 | 991.44 ± 0.11
275.15 K, x1 = 0.01793 | 989.78 ± 0.11
275.15 K, x1 = 0.02241 | 988.08 ± 0.11
275.15 K, x1 = 0.03005 | 985.63 ± 0.11
275.15 K, x1 = 0.04242 | 982.59 ± 0.11
275.15 K, x1 = 0.08929 | 965.24 ± 0.12
276.15 K, x1 = 0.00089 | 999.28 ± 0.11
276.15 K, x1 = 0.00146 | 998.89 ± 0.11
276.15 K, x1 = 0.00269 | 997.99 ± 0.11
276.15 K, x1 = 0.00403 | 997.09 ± 0.11
276.15 K, x1 = 0.00513 | 996.36 ± 0.11
276.15 K, x1 = 0.00761 | 994.86 ± 0.11
276.15 K, x1 = 0.01051 | 993.23 ± 0.11
276.15 K, x1 = 0.01405 | 991.43 ± 0.11
276.15 K, x1 = 0.01793 | 989.76 ± 0.11
276.15 K, x1 = 0.02241 | 988.02 ± 0.11
276.15 K, x1 = 0.03005 | 985.53 ± 0.11
276.15 K, x1 = 0.04242 | 982.37 ± 0.11
276.15 K, x1 = 0.08929 | 964.42 ± 0.12
277.15 K, x1 = 0.00089 | 999.29 ± 0.12
277.15 K, x1 = 0.00146 | 998.9 ± 0.12
277.15 K, x1 = 0.00269 | 998.01 ± 0.11
277.15 K, x1 = 0.00403 | 997.1 ± 0.11
277.15 K, x1 = 0.00513 | 996.37 ± 0.11
277.15 K, x1 = 0.00761 | 994.85 ± 0.11
277.15 K, x1 = 0.01405 | 991.42 ± 0.11
278.15 K, x1 = 0.00089 | 999.28 ± 0.11
278.15 K, x1 = 0.00146 | 998.89 ± 0.11
278.15 K, x1 = 0.00269 | 998.01 ± 0.11
278.15 K, x1 = 0.00403 | 997.1 ± 0.11
278.15 K, x1 = 0.00513 | 996.37 ± 0.11
278.15 K, x1 = 0.00761 | 994.85 ± 0.11
278.15 K, x1 = 0.01051 | 993.21 ± 0.11
278.15 K, x1 = 0.01405 | 991.41 ± 0.11
278.15 K, x1 = 0.01793 | 989.68 ± 0.11
278.15 K, x1 = 0.02241 | 987.87 ± 0.11
278.15 K, x1 = 0.0248 | 986.88 ± 0.11
278.15 K, x1 = 0.03005 | 985.29 ± 0.11
278.15 K, x1 = 0.03494 | 983.86 ± 0.11
278.15 K, x1 = 0.04241 | 981.87 ± 0.11
278.15 K, x1 = 0.04242 | 981.89 ± 0.11
278.15 K, x1 = 0.05218 | 979.23 ± 0.11
278.15 K, x1 = 0.05887 | 977 ± 0.11
278.15 K, x1 = 0.06973 | 972.66 ± 0.11
278.15 K, x1 = 0.08929 | 962.87 ± 0.12
278.15 K, x1 = 0.1125 | 951.21 ± 0.12
278.15 K, x1 = 0.1566 | 929.91 ± 0.13
278.15 K, x1 = 0.208 | 910.57 ± 0.13
278.15 K, x1 = 0.2408 | 899.29 ± 0.13
278.15 K, x1 = 0.3023 | 882.17 ± 0.13
278.15 K, x1 = 0.3451 | 872.16 ± 0.14
278.15 K, x1 = 0.4045 | 860.22 ± 0.14
278.15 K, x1 = 0.4225 | 857.05 ± 0.14
278.15 K, x1 = 0.4653 | 849.9 ± 0.14
278.15 K, x1 = 0.5344 | 839.61 ± 0.15
278.15 K, x1 = 0.6029 | 831.08 ± 0.15
278.15 K, x1 = 0.6909 | 821.72 ± 0.15
278.15 K, x1 = 0.726 | 818.36 ± 0.16
278.15 K, x1 = 0.7999 | 812.56 ± 0.16
279.15 K, x1 = 0.00089 | 999.26 ± 0.11
279.15 K, x1 = 0.00146 | 998.87 ± 0.11
279.15 K, x1 = 0.00269 | 997.99 ± 0.11
279.15 K, x1 = 0.00403 | 997.08 ± 0.11
279.15 K, x1 = 0.00513 | 996.35 ± 0.11
279.15 K, x1 = 0.00761 | 994.79 ± 0.11
279.15 K, x1 = 0.01405 | 991.37 ± 0.11
280.15 K, x1 = 0.00089 | 999.22 ± 0.11
280.15 K, x1 = 0.00146 | 998.83 ± 0.11
280.15 K, x1 = 0.00269 | 997.95 ± 0.11
280.15 K, x1 = 0.00403 | 997.04 ± 0.11
280.15 K, x1 = 0.00513 | 996.31 ± 0.11
280.15 K, x1 = 0.00761 | 994.76 ± 0.11
280.15 K, x1 = 0.01051 | 993.13 ± 0.11
280.15 K, x1 = 0.01405 | 991.32 ± 0.11
280.15 K, x1 = 0.01793 | 989.57 ± 0.11
280.15 K, x1 = 0.02241 | 987.69 ± 0.11
280.15 K, x1 = 0.03005 | 985 ± 0.11
280.15 K, x1 = 0.04242 | 981.35 ± 0.11
280.15 K, x1 = 0.08929 | 961.26 ± 0.12
281.15 K, x1 = 0.00089 | 999.17 ± 0.11
281.15 K, x1 = 0.00146 | 998.78 ± 0.11
281.15 K, x1 = 0.00269 | 997.9 ± 0.11
281.15 K, x1 = 0.00403 | 996.99 ± 0.11
281.15 K, x1 = 0.00513 | 996.26 ± 0.11
281.15 K, x1 = 0.00761 | 994.7 ± 0.11
281.15 K, x1 = 0.01405 | 991.25 ± 0.11
282.15 K, x1 = 0.00089 | 999.1 ± 0.11
282.15 K, x1 = 0.00146 | 998.72 ± 0.11
282.15 K, x1 = 0.00269 | 997.84 ± 0.11
282.15 K, x1 = 0.00403 | 996.93 ± 0.11
282.15 K, x1 = 0.00513 | 996.19 ± 0.11
282.15 K, x1 = 0.00761 | 994.63 ± 0.11
282.15 K, x1 = 0.01405 | 991.16 ± 0.11
283.15 K, x1 = 0.00089 | 999.02 ± 0.11
283.15 K, x1 = 0.00146 | 998.63 ± 0.11
283.15 K, x1 = 0.00269 | 997.76 ± 0.11
283.15 K, x1 = 0.00403 | 996.85 ± 0.11
283.15 K, x1 = 0.00513 | 996.12 ± 0.11
283.15 K, x1 = 0.00761 | 994.57 ± 0.11
283.15 K, x1 = 0.01405 | 991.06 ± 0.11
288.15 K, x1 = 0.00089 | 998.43 ± 0.11
288.15 K, x1 = 0.00146 | 998.04 ± 0.11
288.15 K, x1 = 0.00269 | 997.17 ± 0.11
288.15 K, x1 = 0.00403 | 996.26 ± 0.11
288.15 K, x1 = 0.00513 | 995.52 ± 0.11
288.15 K, x1 = 0.00761 | 993.96 ± 0.11
288.15 K, x1 = 0.01405 | 990.35 ± 0.11
288.15 K, x1 = 0.0248 | 985.26 ± 0.11
288.15 K, x1 = 0.03494 | 981.48 ± 0.11
288.15 K, x1 = 0.04241 | 978.77 ± 0.11
288.15 K, x1 = 0.05218 | 974.85 ± 0.11
288.15 K, x1 = 0.05887 | 971.81 ± 0.11
288.15 K, x1 = 0.06973 | 966.34 ± 0.12
288.15 K, x1 = 0.1125 | 943.7 ± 0.12
288.15 K, x1 = 0.1566 | 922.09 ± 0.12
288.15 K, x1 = 0.208 | 902.66 ± 0.13
288.15 K, x1 = 0.2408 | 891.25 ± 0.13
288.15 K, x1 = 0.3023 | 874 ± 0.14
288.15 K, x1 = 0.3451 | 863.89 ± 0.14
288.15 K, x1 = 0.4045 | 851.78 ± 0.14
288.15 K, x1 = 0.4225 | 848.63 ± 0.14
288.15 K, x1 = 0.4653 | 841.48 ± 0.14
288.15 K, x1 = 0.5344 | 830.98 ± 0.15
288.15 K, x1 = 0.6029 | 822.27 ± 0.15
288.15 K, x1 = 0.6909 | 812.77 ± 0.16
288.15 K, x1 = 0.726 | 809.38 ± 0.16
288.15 K, x1 = 0.7999 | 803.46 ± 0.16
288.15 K, x1 = 0.8711 | 797.8 ± 0.17
288.15 K, x1 = 0.9183 | 794.66 ± 0.17
298.15 K, x1 = 0.00089 | 996.39 ± 0.11
298.15 K, x1 = 0.00146 | 996 ± 0.11
298.15 K, x1 = 0.00269 | 995.11 ± 0.11
298.15 K, x1 = 0.00403 | 994.19 ± 0.11
298.15 K, x1 = 0.00513 | 993.44 ± 0.11
298.15 K, x1 = 0.00761 | 991.84 ± 0.11
298.15 K, x1 = 0.01405 | 988.08 ± 0.11
298.15 K, x1 = 0.0248 | 982.45 ± 0.11
298.15 K, x1 = 0.03494 | 977.97 ± 0.11
298.15 K, x1 = 0.04241 | 974.54 ± 0.11
298.15 K, x1 = 0.05218 | 969.58 ± 0.11
298.15 K, x1 = 0.05887 | 965.94 ± 0.12
298.15 K, x1 = 0.06973 | 959.94 ± 0.12
298.15 K, x1 = 0.1125 | 936.18 ± 0.12
298.15 K, x1 = 0.1566 | 914.18 ± 0.13
298.15 K, x1 = 0.208 | 894.55 ± 0.13
298.15 K, x1 = 0.2408 | 883.06 ± 0.13
298.15 K, x1 = 0.3023 | 865.6 ± 0.14
298.15 K, x1 = 0.3451 | 855.48 ± 0.14
298.15 K, x1 = 0.4045 | 843.11 ± 0.14
298.15 K, x1 = 0.4225 | 839.94 ± 0.15
298.15 K, x1 = 0.4653 | 832.83 ± 0.15
298.15 K, x1 = 0.5344 | 822.05 ± 0.15
